# From article PMC10812672, “Short Antimicrobial Peptide Derived from the Venom Gland Transcriptome of Pamphobeteus verdolaga Increases Gentamicin Susceptibility of Multidrug-Resistant Klebsiella pneumoniae” (Antibiotics, 2023)
# Ends that are not written are not given here.
# Tested on: multidrug-resistant (MDR) strain of K. pneumoniae, clinical isolate
# Assay: microbe, parasite or virus in culture
# Type: cell-based, Klebsiella pneumoniae
# Details: MDR K. pneumoniae clinical isolate
substance,measurement,setting,value
WKKIKKFF-NH2 [PvAMP66],MIC,,3.51 µg/mL
same,IC50,"95% confidence interval in parentheses, read-out: IC50",15.8 µM
same,MIC,"peptides 1.56–200 µM, antibiotics 1.56–100 µM, 24 h 37 °C",25.00 µM
